Results: US20080146593A1, “Substituted 5-Phenyl Pyrimidines I In Therapy” (Basf Aktiengesellschaft, priority 2005, published 2008)

Test system: HeLa cells
Test: Measurement of the cell cycle inhibition in HeLa cells
Assay type: cell-based
Details: HeLa B cells, 20 h incubation with compound; FACS ratio G0/G1 to G2/M vs DMSO; concentration at which 50% of cells are in cell cycle arrest
Protocol: Measurement of the Cell Cycle Inhibition in HeLa Cells—Test Procedure:
HeLa B cells are grown in DMEM (Life Technologies Cat No 21969-035) supplemented with 10% Fetal Calf Serum (FCS, Life Technologies Cat No 10270-106) in 180 cm^2 Flasks at 37° C., 92% humidity and 7% CO2.
Cells are seeded at 5×10^4 cells per well in a 24-well plate. Twenty hours later the compounds are added such that the final concentration is 1×10^−6, 3.3×10^−7, 1.1×10^−7, 3.7×10^−8, 1.2×10^−8 and 1×10^−9 M in a final volume of 500 μl. DMSO alone is added to 6 wells as a control. Cells are incubated with the compounds as above for 20 h. Then cells are observed under the microscope to check for cell death, and the 24-well plate is then centrifuged at 1200 rpm for 5 min at 20° C., acceleration position 7 and break position 5 (Eppendorf centrifuge 5804R).
The supernatant is removed and the cells lysed with 0.5 ml RNase Buffer (10 mM NaCitrate, 0.1% Nonidet NP40, 50 μg/ml RNase, 10 μg/ml Propidium iodide) per well. The plates are then incubated for at least 30 min in the dark at RT and the samples then transferred to FACS tubes. Samples are measured in a FACS machine (Beckton Dickinson) at the following settings:
Instrument Settings of the FACS Calibur:
The ratio of cells in G0/G1-phase to G2/M phase is calculated and compared to the value for the controls (DMSO) only. Results are given in table 2 as the IC50 value calculated from the concentration curve plotted against the cell cycle ratio and indicate the compound concentration at which 50% of cells are in cell cycle arrest after treatment with the compound.

Structure (SMILES) | IC50
COc1ccc(-c2c(Cl)nc(C(N)=NO)nc2N[C@@H](C)C(F)(F)F)c(Cl)c1 [Example 215] | 14 nM
CC1CCN(c2nc(-c3ccccn3)nc(Cl)c2-c2c(F)cc(O)cc2F)CC1 [Example 73] | 11 nM
C[C@H](Nc1nc(-n2cc(C#N)c(N)n2)nc(Cl)c1-c1c(F)cccc1Cl)C(F)(F)F [Example 187] | 39 nM
COc1ccc(-c2c(Cl)nc(C(N)=NO)nc2N[C@@H](C)C(C)C)c(Cl)c1 [Example 185] | 30 nM
CCC(C)Nc1nc(-n2ccnn2)nc(Cl)c1-c1c(C)cccc1F (centres unmarked) [Example 111] | 29 nM
CC1CCN(c2nc(-n3cnc(N)n3)nc(Cl)c2-c2c(F)cc(F)cc2F)CC1 [Example 94] | 25 nM
CC(C)C(C)Nc1nc(-c2ccccn2)nc(Cl)c1-c1c(F)cccc1F (centres unmarked) [Example 84] | 27 nM
Cc1nc(-c2nc(Cl)c(-c3c(F)cc(F)cc3F)c(NC3CCCC3)n2)cs1 [Example 72] | 46 nM
Fc1cc(F)c(-c2c(Cl)nc(-n3cncn3)nc2N2CCCCC2)c(F)c1 [Example 52] | 22 nM
CC1CCCCN1c1nc(-n2cncn2)nc(Cl)c1-c1ccc(F)cc1F (centres unmarked) [Example 141] | 46 nM
CCC(C)Nc1nc(-n2cccn2)nc(Cl)c1-c1ccc(C)cc1F (centres unmarked) [Example 97] | 13 nM
Cc1nc(-n2cncn2)nc(N2CCC(C)CC2)c1-c1c(F)cc(F)cc1F [Example 93] | 39 nM
Cc1nc(C)n(-c2nc(Cl)c(-c3c(F)cccc3F)c(N3CCC(C)CC3)n2)n1 [Example 118] | 32 nM
COc1cc(F)c(-c2c(Cl)nc(C(N)=O)nc2N2CCC(C)CC2)c(F)c1 [Example 188] | 30 nM
Cc1nc(C)n(-c2nc(Cl)c(-c3c(F)cc(F)cc3F)c(N3CCCCC3)n2)n1 [Example 54] | 23 nM
CCC(C)Nc1nc(-n2ccc(N)n2)nc(Cl)c1-c1c(F)cccc1Cl (centres unmarked) [Example 148] | 34 nM
Fc1cc(F)c(-c2c(Cl)nc(-n3cccn3)nc2N2CCCCC2)c(F)c1 [Example 51] | 6.5 nM
Cc1ccc(-c2c(Cl)nc(-n3cccn3)nc2N2CCC(C)CC2)c(F)c1 [Example 87] | 39 nM
Fc1cc(F)c(-c2c(Cl)nc(-n3cccn3)nc2N2CC=CCC2)c(F)c1 [Example 41] | 38 nM
Cc1nc(C)n(-c2nc(Cl)c(-c3c(F)cccc3Cl)c(N3CCC(C)CC3)n2)n1 [Example 85] | 21 nM
CCC(C)Nc1nc(-n2cncn2)nc(Cl)c1-c1c(C)cccc1F (centres unmarked) [Example 110] | 25 nM
CC(C)[C@@H](C)Nc1nc(-n2cncn2)nc(Cl)c1-c1c(F)cccc1Cl [Example 48] | 13 nM
CC1CCCCN1c1nc(-n2cccn2)nc(Cl)c1-c1c(F)cccc1F (centres unmarked) [Example 125] | 38 nM
CC1CCCN(c2nc(-n3ccnn3)nc(Cl)c2-c2c(F)cc(F)cc2F)C1 (centres unmarked) [Example 42] | 18 nM
CC(C)[C@H](C)Nc1nc(C(N)=NO)nc(Cl)c1-c1cc(F)ccc1Cl [Example 201] | 30 nM

Structure (SMILES) | IC50
CON=C(N)c1nc(Cl)c(-c2ccc(OC)cc2Cl)c(N[C@@H](C)C(F)(F)F)n1 [Example 216] | 27 nM
CON=C(N)c1nc(Cl)c(-c2ccc(F)cc2Cl)c(N[C@@H](C)C(F)(F)F)n1 [Example 211] | 24 nM
CC(C)[C@H](C)Nc1nc(C(N)=NO)nc(Cl)c1-c1ccc([N+](=O)[O-])cc1Cl [Example 192] | 30 nM
C=CCN(C)c1nc(-n2ccnn2)nc(Cl)c1-c1c(F)cc(F)cc1F [Example 206] | 20 nM
CC1CCCCN1c1nc(-n2cccn2)nc(Cl)c1-c1c(F)cc(F)cc1F (centres unmarked) [Example 96] | 29 nM
CON=C(N)c1nc(Cl)c(-c2c(F)cccc2F)c(N[C@@H](C)C(C)C)n1 [Example 196] | 38 nM
COc1ccc(-c2c(Cl)nc(C(N)=O)nc2N[C@@H](C)C(F)(F)F)c(Cl)c1 [Example 217] | 23 nM
CCC(C)Nc1nc(-n2ccnn2)nc(Cl)c1-c1c(F)cccc1F (centres unmarked) [Example 114] | 41 nM
CC(C)C(C)Nc1nc(-c2ccccn2)nc(Cl)c1-c1c(F)cccc1F (centres unmarked) [Example 82] | 30 nM
CC1CCN(c2nc(-n3ccnn3)nc(Cl)c2-c2ccc(F)cc2Cl)CC1 [Example 119] | 48 nM
CCOC(=O)c1cc(C)nn1-c1nc(Cl)c(-c2c(F)cc(F)cc2F)c(N[C@H](C)C(C)C)n1 [Example 88] | 44 nM
COc1cc(F)c(-c2c(Cl)nc(-c3ccccn3)nc2NC(C)C)c(F)c1 [Example 62] | 23 nM
CC(C)Nc1nc(-c2ccccn2)nc(Cl)c1-c1c(F)cccc1F [Example 83] | 37 nM
COc1cc(F)c(-c2c(Cl)nc(-n3ccnn3)nc2N2CCC(C)CC2)c(F)c1 [Example 69] | 21 nM
COc1cc(F)c(-c2c(Cl)nc(-n3cnc([N+](=O)[O-])n3)nc2N2CCC(C)CC2)c(F)c1 [Example 86] | 24 nM
CCC(C)Nc1nc(-c2ccccn2)nc(Cl)c1-c1c(F)cc(OC)cc1F (centres unmarked) [Example 63] | 22 nM
CC1CCN(c2nc(C(N)=O)nc(Cl)c2-c2c(F)cccc2F)CC1 [Example 179] | 53 nM
Fc1cc(F)c(-c2c(Cl)nc(-c3nccs3)nc2NC2CCCC2)c(F)c1 [Example 40] | 23 nM
Cc1nc(-n2ccnn2)nc(N2CCC(C)CC2)c1-c1c(F)cccc1Cl [Example 166] | 42 nM
CC(C)[C@H](C)Nc1nc(C(N)=NO)nc(Cl)c1-c1ccc(F)cc1Cl [Example 193] | 9 nM
CCC(C)Nc1nc(-n2cc(I)cn2)nc(Cl)c1-c1c(C)cccc1F (centres unmarked) [Example 120] | 25 nM
Cc1ccn(-c2nc(Cl)c(-c3c(F)cccc3Cl)c(NC(C)C)n2)n1 [Example 20] | 39 nM
CC1CCCN1c1nc(-n2cccn2)nc(Cl)c1-c1c(F)cc(F)cc1F (centres unmarked) [Example 74] | 13 nM
CON=C(N)c1nc(Cl)c(-c2c(F)cc(OC)cc2F)c(N[C@@H](C)C(C)C)n1 [Example 198] | 15 nM

Now from value to compound:

IC50 | Structure (SMILES)
16 nM | Cc1cccc(-c2nc(Cl)c(-c3c(F)cc(F)cc3F)c(N[C@@H](C)C(F)(F)F)n2)n1 [Example 13]
23 nM | C[C@H](Nc1nc(C(N)=O)nc(Cl)c1-c1c(F)cc(F)cc1F)C(F)(F)F [Example 159]
20 nM | C[C@H](Nc1nc(-n2cccn2)nc(F)c1-c1c(F)cc(F)cc1F)C(F)(F)F [Example 167]
54 nM | Cc1nc(C(N)=NO)nc(N[C@@H](C)C(F)(F)F)c1-c1c(F)cc(F)cc1F [Example 171]
36 nM | C[C@H](Nc1nc(-n2cc(Cl)cn2)nc(Cl)c1-c1c(F)cc(F)cc1F)C(F)(F)F [Example 35]
13 nM | C[C@H](Nc1nc(N(C)N)nc(Cl)c1-c1c(F)cc(F)cc1F)C(F)(F)F [Example 9]
39 nM | O=C1CCCN1c1nc(Cl)c(-c2c(F)cc(F)cc2F)c(NCC(F)(F)F)n1 [Example 210]
45 nM | CC(CO)Nc1nc(-n2cc(Br)cn2)nc(Cl)c1-c1c(F)cc(F)cc1F (centres unmarked) [Example 124]
39 nM | CC(C)Nc1nc(-n2nccc2[N+](=O)[O-])nc(Cl)c1-c1c(F)cc(F)cc1F [Example 23]
43 nM | Cc1ccnc(-c2nc(Cl)c(-c3c(F)cc(F)cc3F)c(NC(C)C)n2)c1 [Example 15]
18 nM | CON=C(N)c1nc(Cl)c(-c2c(F)cccc2Cl)c(N[C@@H](C)C(F)(F)F)n1 [Example 214]
21 nM | C[C@H](Nc1nc(-n2nccc2[N+](=O)[O-])nc(Cl)c1-c1c(F)cc(F)cc1F)C(F)(F)F [Example 7]
6 nM | COc1cc(F)c(-c2c(Cl)nc(C(N)=NO)nc2N[C@@H](C)C(F)(F)F)c(F)c1 [Example 181]
23 nM | CC(C)[C@H](C)Nc1nc(C(N)=NO)nc(Cl)c1-c1c(F)cc(F)cc1F [Example 145]
20 nM | CCC(C)Nc1nc(-n2ccnn2)nc(Cl)c1-c1c(F)cc(F)cc1F (centres unmarked) [Example 91]
18 nM | NC(=NO)c1nc(Cl)c(-c2c(F)cc(F)cc2F)c(NCC(F)(F)F)n1 [Example 173]
25 nM | Cc1cc(C)n(-c2nc(Cl)c(-c3c(F)cc(F)cc3F)c(NC(C)C)n2)n1 [Example 21]
39 nM | Cc1ccn(-c2nc(Cl)c(-c3c(F)cc(F)cc3F)c(NC(C)C)n2)n1 [Example 18]
47 nM | CC(C)Nc1nc(-n2ccc(N)n2)nc(Cl)c1-c1c(F)cc(F)cc1F [Example 104]
5.8 nM | CC(Nc1nc(-n2ccc(N)n2)nc(Cl)c1-c1c(F)cc(F)cc1F)C(F)(F)F (centres unmarked) [Example 57]
26 nM | CC(C)C(C)Nc1nc(-c2cccnn2)nc(Cl)c1-c1c(F)cc(F)cc1F (centres unmarked) [Example 80]
45 nM | CC(C)Nc1nc(-n2cc(Br)cn2)nc(Cl)c1-c1c(F)cc(F)cc1F [Example 17]
17 nM | C[C@H](Nc1nc(-n2cc(C#N)cn2)nc(Cl)c1-c1c(F)cc(F)cc1F)C(F)(F)F [Example 162]
39 nM | Cc1cn(-c2nc(Cl)c(-c3c(F)cc(F)cc3F)c(NC(C)C(F)(F)F)n2)nc1-c1ccco1 (centres unmarked) [Example 95]
53 nM | Fc1cc(F)c(-c2c(Cl)nc(-n3ccnn3)nc2NCC(F)(F)F)c(F)c1 [Example 212]
